Data from patent US20130296455A1, “NOVEL COMPOUND, DYE AND COLORED PHOTOSENSITIVE COMPOSITION” (ADEKA CORPORATION, priority 2011, published 2013).

Test: Evaluation of absorption wavelength property in CHCl3 solution
Assay type: physicochemical
Conditions: maximum absorption wavelength in CHCl3 solution
Description: (§1) Bis(4-formylphenyl)phenylamine (0.90 g, 3 mmol), ethyl cyanoacetate (0.75 g, 6.6 mmol) and ethanol (1.26 g) were added to a reaction container and heated to 50° C. under stirring. Triethylamine (0.06 g, 0.6 mmol) was then added dropwise, a reaction was conducted at 50° C. for 2 hours, and the reactant was cooled to room temperature. The reaction solution was subjected to liquid separation with ethyl acetate/water, the organic layer was dried under a reduced pressure, and the precipitated solid was washed with hexane to thereby give 1.13 g (yield 95.2%) of a yellow powder. That the obtained yellow powder was the intended substance was confirmed by ^1H-NMR and IR. Furthermore, the solubility and absorption wavelength properties (absorption wavelength λmax and absorption coefficient ∈) of compound No. 1 were measured. PGMEA was added dropwise to 0.1 g of the compound under stirring, and the solubility was defined as the concentration at the time when PGMEA had completely dissolved the compound. Furthermore, the absorption wavelength properties were measured in a CHCl3 solution.
The maximum absorption wavelengths of Compounds Nos. 1, 2, 5 and 46 and Comparative Compounds Nos. 1 and 2 obtained above were each evaluated in a CHCl3 solution. The results are shown in [Table 5].

λmax [nm] | Structure (SMILES)
460 | CCOC(=O)/C(C#N)=C/c1ccc(N(c2ccccc2)c2ccc(/C=C(\C#N)C(=O)OCC)cc2)cc1 [Compound No. 1]
423 | CCOC(=O)/C(C#N)=C/c1ccc(N2CCN(c3ccc(/C=C(\C#N)C(=O)OCC)cc3)CC2)cc1 [Compound No. 5]
430 | CCOC(=O)/C(C#N)=C/c1ccc(N(CC)CCCCCCN(CC)c2ccc(/C=C(\C#N)C(=O)OCC)cc2)cc1 [Compound No. 46]
430 | CCOC(=O)/C(C#N)=C/c1ccc(N(CC)CC)cc1 [Comparative Compound No. 1, reference compound]
432 | CCOCCOC(=O)/C(C#N)=C/c1ccc(N(CC)CC)cc1 [Comparative Compound No. 2, reference compound]
452 | CCOC(=O)/C(C#N)=C/c1ccc(N(c2ccc(/C=C(\C#N)C(=O)OCC)cc2)c2ccc(/C=C(\C#N)C(=O)OCC)cc2)cc1 [Compound No. 2]

Test: Evaluation of heat-resistance by calcination of coating of colored alkali-developable photosensitive composition
Assay type: physicochemical
Conditions: absorbance of coating at λmax after calcination 230° C.×30 min; before calcination (after exposure to light) = 100
Description: No. 3 obtained above, and comparative colored alkali-developable photosensitive composition No. 1 were each applied to a glass substrate under conditions of 410 rpm×7 sec, and dried on a hot plate (90° C., 90 sec). The obtained coating was exposed to light by a ultrahigh pressure mercury lamp (150 mJ/cm^2). The coating after the exposure to light was calcined under conditions of 230° C.×30 min. The absorbance of the coating before the calcination (after the exposure to light) and the absorbance of the coating after the calcination at the maximum absorption wavelength (λmax) of the compound (dye) as used were measured, and considering the absorption of the coating before the calcination (after the exposure to light) as 100, the absorbance of the coating after the calcination closer to 100 was evaluated to give higher heat-resistance. The results are shown in [Table 6].

relative intensity 230° C., 30 min | Structure (SMILES)
94.9 | CCOC(=O)/C(C#N)=C/c1ccc(N(c2ccccc2)c2ccc(/C=C(\C#N)C(=O)OCC)cc2)cc1 [Compound No. 1]
99.9 | CCOC(=O)/C(C#N)=C/c1ccc(N(CC)CCCCCCN(CC)c2ccc(/C=C(\C#N)C(=O)OCC)cc2)cc1 [Compound No. 46]
12.5 | CCOC(=O)/C(C#N)=C/c1ccc(N(CC)CC)cc1 [Comparative Compound No. 1, reference compound]
98.5 | CCOC(=O)/C(C#N)=C/c1ccc(N(c2ccc(/C=C(\C#N)C(=O)OCC)cc2)c2ccc(/C=C(\C#N)C(=O)OCC)cc2)cc1 [Compound No. 2]

Same assay, conditions: coating of colored alkali-developable photosensitive composition on glass substrate

λmax [nm] | Structure (SMILES)
458 | CCOC(=O)/C(C#N)=C/c1ccc(N(c2ccccc2)c2ccc(/C=C(\C#N)C(=O)OCC)cc2)cc1 [Compound No. 1]
436 | CCOC(=O)/C(C#N)=C/c1ccc(N(CC)CCCCCCN(CC)c2ccc(/C=C(\C#N)C(=O)OCC)cc2)cc1 [Compound No. 46]
430 | CCOC(=O)/C(C#N)=C/c1ccc(N(CC)CC)cc1 [Comparative Compound No. 1, reference compound]
452 | CCOC(=O)/C(C#N)=C/c1ccc(N(c2ccc(/C=C(\C#N)C(=O)OCC)cc2)c2ccc(/C=C(\C#N)C(=O)OCC)cc2)cc1 [Compound No. 2]

Test: Solubility in PGMEA
Assay type: physicochemical
Conditions: PGMEA added dropwise to 0.1 g of compound; concentration when completely dissolved
Description: as §1

solubility [wt %] | Structure (SMILES)
4.6 | CCOC(=O)/C(C#N)=C/c1ccc(N(c2ccccc2)c2ccc(/C=C(\C#N)C(=O)OCC)cc2)cc1 [Compound No. 1]
0.1 | CCOC(=O)/C(C#N)=C/c1ccc(N2CCN(c3ccc(/C=C(\C#N)C(=O)OCC)cc3)CC2)cc1 [Compound No. 5]
0.5 | CCOC(=O)/C(C#N)=C/c1ccc(N(CC)CCCCCCN(CC)c2ccc(/C=C(\C#N)C(=O)OCC)cc2)cc1 [Compound No. 46]
3.5 | CCOC(=O)/C(C#N)=C/c1ccc(N(c2ccc(/C=C(\C#N)C(=O)OCC)cc2)c2ccc(/C=C(\C#N)C(=O)OCC)cc2)cc1 [Compound No. 2]

Test: Evaluation of heat-resistance by TG-DTA
Assay type: physicochemical
Conditions: not given
Description: Compounds Nos. 1, 2, 5 and 46 and Comparative Compounds Nos. 1 and 2 obtained above were analyzed by TG-DTA to thereby measure the melting points and temperatures at 10% weight loss. The results are shown in [Table 4].

temperatures at 10% weight loss [°C] | Structure (SMILES)
355 | CCOC(=O)/C(C#N)=C/c1ccc(N(c2ccccc2)c2ccc(/C=C(\C#N)C(=O)OCC)cc2)cc1 [Compound No. 1]
345 | CCOC(=O)/C(C#N)=C/c1ccc(N2CCN(c3ccc(/C=C(\C#N)C(=O)OCC)cc3)CC2)cc1 [Compound No. 5]
346 | CCOC(=O)/C(C#N)=C/c1ccc(N(CC)CCCCCCN(CC)c2ccc(/C=C(\C#N)C(=O)OCC)cc2)cc1 [Compound No. 46]
259 | CCOC(=O)/C(C#N)=C/c1ccc(N(CC)CC)cc1 [Comparative Compound No. 1, reference compound]
252 | CCOCCOC(=O)/C(C#N)=C/c1ccc(N(CC)CC)cc1 [Comparative Compound No. 2, reference compound]
370 | CCOC(=O)/C(C#N)=C/c1ccc(N(c2ccc(/C=C(\C#N)C(=O)OCC)cc2)c2ccc(/C=C(\C#N)C(=O)OCC)cc2)cc1 [Compound No. 2]
